Patent US5605929A, “Methods and compositions for inhibiting 5α-reductase activity” (priority 1995, dated 1997)
Read-outs that look alike come from different tables or passages of the source.

Key:
[1] = target: T1, human 5α-reductase isozyme type 1 (Homo sapiens, UniProt P18405); experiment: [3H]4-MA binding, human type 1 isozyme expressed in Rat-1A cells; details: read-out: % Inhibition of [^3 H]4-MA binding
T1 construct: expressed in transfected cells; host or cells: Rat-1A cells infected with pMV7 retrovirus; microsomes of these cells
T1 sequence (P18405 1-259): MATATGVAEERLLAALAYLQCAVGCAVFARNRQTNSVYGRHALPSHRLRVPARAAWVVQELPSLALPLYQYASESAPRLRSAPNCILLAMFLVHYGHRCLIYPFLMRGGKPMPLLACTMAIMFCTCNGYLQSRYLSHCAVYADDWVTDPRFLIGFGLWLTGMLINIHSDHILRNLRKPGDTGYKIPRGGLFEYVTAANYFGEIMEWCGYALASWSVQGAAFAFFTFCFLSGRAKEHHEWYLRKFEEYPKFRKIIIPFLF

[2] = target: T1, human 5α-reductase isozyme type 1; experiment: 4-[14C]testosterone reduction, human type 1 isozyme; assay type: biochemical; details: read-out: % Inhibition of 5α-reduction
Description: (§1) The cDNAs for the human type 1 and 2 5α-reductases were isolated from human prostate λZAP II™ cDNA libraries using the published sequence of the 5α-reductases, PCR™ and standard library screening techniques (Sambrook et al., 1989). The type 1 and 2 cDNAs correspond to nucleotides 31-870 and 28-829, respectively, of the published sequences for these 5α-reductases (Anderson and Russell, 1990; Anderson et al., 1991). The type 1 and 2 cDNAs were subcloned into the retroviral expression vector pMV7 (Kirschmeier et al., 1988) and high titer stocks of virus containing the type 1 and 2 cDNAs were generated using the packaging cells BOSC 23 293 (Kirschmeier et al., 1988). Rat.-1A cells (Pear et al., 1993) were infected with virus (Topp, 1981) and cells containing integrated retrovirus were selected for G418-SO4 resistance, (Brown and Scott, 1987).
(§2) Microsomes were prepared as described previously (Liang and Liao, 1992) from the liver of adult Sprague-Dawley female rats or Rat-1A cells expressing a specific type of human 5α-reductase. […] The data presented was based on the rate of reaction.
(§3) The reaction was started by the addition of 25 μl of microsomes (25 μg protein). The mixture was incubated at 37° for 30-60 min and stopped by addition of 0.5 ml of ethyl acetate and mixing for 1 min. The organic solvent extract was removed under vacuum.

[3] = test system: ventral prostate and preputial organ
Description: Male Sprague-Dawley rats, 60±5 g body weight, were used. Each group had 6 rats, and all were castrated.

[4] = test system: androgen-dependent organs; assay type: in vivo, rat
Method: The control rats were injected with 0.3 ml of 30% ethanol.

[5] = test system: human prostate cancer (PC3 and LNCaP) cells; experiment: 5α-reduction of testosterone by human prostate cancer cells; assay type: cell-based
[6] = target: T2, human 5α-reductase isozyme type 2 (Homo sapiens, UniProt P31213); experiment: 4-[14C]testosterone reduction, human type 2 isozyme; assay type: biochemical; details: for inhibition at 1 µM / inhibition at 3 µM / inhibition at 10 µM / inhibition at 30 µM / inhibition at 100 µM: read-out: % Inhibition of 5α-reduction
T2 construct: expressed in transfected cells; host or cells: Rat-1A cells infected with pMV7 retrovirus; microsomes of these cells
T2 sequence (P31213 1-254): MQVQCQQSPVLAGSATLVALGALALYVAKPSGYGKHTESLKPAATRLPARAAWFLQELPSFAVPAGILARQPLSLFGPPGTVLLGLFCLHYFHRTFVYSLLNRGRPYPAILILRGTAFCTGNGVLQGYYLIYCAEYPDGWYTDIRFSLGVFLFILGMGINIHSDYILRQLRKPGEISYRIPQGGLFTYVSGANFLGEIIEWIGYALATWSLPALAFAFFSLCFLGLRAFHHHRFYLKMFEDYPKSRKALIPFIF
Description: as §1, §2, §3

[7] = target: T2, human 5α-reductase isozyme type 2; experiment: [3H]4-MA binding, human type 2 isozyme expressed in Rat-1A cells; details: read-out: % Inhibition of [^3 H]4-MA binding
microsomal 5α-reductase = target: T3, microsomal 5α-reductase (Rattus norvegicus, UniProt P24008); experiment: Enzymatic assay of microsomal 5α-reductase (testosterone to 5α-DHT); assay type: biochemical
T3 construct: from the livers of adult Sprague-Dawley female rats; from tissue; host or cells: liver microsomes of adult female Sprague-Dawley rats
T3 sequence (P24008 1-259): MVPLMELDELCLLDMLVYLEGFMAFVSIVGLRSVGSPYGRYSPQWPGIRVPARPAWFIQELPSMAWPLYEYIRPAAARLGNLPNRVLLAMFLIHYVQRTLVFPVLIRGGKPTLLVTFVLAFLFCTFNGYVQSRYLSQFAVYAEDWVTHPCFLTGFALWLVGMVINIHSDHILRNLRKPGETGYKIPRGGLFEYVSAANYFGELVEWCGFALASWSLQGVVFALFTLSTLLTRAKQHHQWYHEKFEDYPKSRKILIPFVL
Method: Microsomes were prepared at 4° C. from a buffered 0.32M-sucrose homogenate of human liver and from the livers of adult Sprague-Dawley female rats by differential centrifugation as described previously (Liang et al., 1990), and were used in the assay of 5α-reductase activity. In some experiments, microsomes were solubilized with 0.1% polyoxyethylene ether W-1 as described previously (Liang et al., 1990), except for the substitution of polyoxyethylene ether W-1 for Lubrol-WX.

Row | Compound | inhibition at 1 µM [1] | inhibition at 3 µM [1] | inhibition at 10 µM [1] | inhibition at 30 µM [1] | inhibition at 100 µM [1] | inhibition at 1 µM [2] | inhibition at 3 µM [2] | inhibition at 10 µM [2] | inhibition at 30 µM [2] | reduction of weights of ventral prostate and preputial organ ([3]; 5 mg ip daily, 14 days) | general health / organ appearance ([3]; rat, in vivo) | 5α-DHT production by human prostate cancer cells [5] | inhibition at 1 µM [6] | inhibition at 3 µM [6] | inhibition at 10 µM [6] | inhibition at 30 µM [6] | inhibition at 100 µM [6] | inhibition at 1 µM [7] | inhibition at 3 µM [7] | inhibition at 10 µM [7] | also measured
1 | O=C(O[C@@H]1Cc2c(O)cc(O)cc2O[C@@H]1c1cc(O)c(O)c(O)c1)c1cc(O)c(O)c(O)c1 [EGCG, (-)Epigallocatechin-3-gallate] | 29% | 47% | 77% | 88% | 86% | 22% | 23% | 34% | 89% | 10 to 35% | appeared to be as healthy as rats in other groups | reduced 5α-DHT production | < 10% | < 10% | < 10% | < 10% | 73% | < 10% | 12% | 55% | inhibition at 100 µM [2]: 98%; reduction of body weight increase ([3]; 5 mg ip daily, 14 days): about 35%; fat content under the skin ([3]; rat, in vivo): appeared less; body weight reduction ([4]; 10 mg per day): about 10%; coagulating glands weight reduction ([4]; 10 mg per day): about 30%; dorsolateral prostate weight reduction ([4]; 10 mg per day): about 30%; effect on weights of testis and kidney ([4]; 10 mg per day): not significant; preputial glands weight loss ([4]; 10 mg per day): 20 to 25%; seminal vesicles weight loss ([4]; 10 mg per day): 20 to 25%; ventral prostate weight reduction ([4]; 10 mg per day): about 30%; body weight loss ([4]; 10 mg per day, discussion): less than 10%; prostate weight loss ([4]; 10 mg per day, discussion): more than 30%; body weight reduction ([4]; 15 mg per day): about 25%; effect on weights of testis and kidney ([4]; 15 mg per day): ≤ 10%; weight reduction for all of these organs ([4]; 15 mg per day, prostates, coagulating glands, seminal vesicles, preputial glands): ≥ 60%; reversibility of body weight effect ([4]; application stopped, FIG. 38): reversible; organ weights ([4]; male rats, ventral and dorsolateral prostates, coagulating glands, seminal vesicles, preputial glands): without affecting the weight of testis or kidney; activity on type 2 isozyme ([6]; enzymatic assay, concentrations below 30 μM for ECG/EGCG): did not inhibit the Type 2 isozyme; inhibition at 30 µM [7]: 72%; inhibition at 100 µM [7]: 89%
2 | CCCCC/C=C\C/C=C\C/C=C\CCCCC(=O)O [γ-Linolenic acid, γ-linolenic acid] | 20% | 54% | 65% | 79% | 85% | 31% | 52% | 89% | 99% | 10 to 35% | appeared to be as healthy as rats in other groups | can inhibit the conversion of testosterone to 5α-DHT | 30% | 48% | 60% | 88% | 99% | 22% | 49% | 63% | effect on body weight increase ([3]; 5 mg ip daily, 14 days): not EC or γ-LA; IC50 ([5]; Homo sapiens, LNCaP, read-out: IC50 with the prostate cancer cells): 10 ± 5 µM; inhibition at 30 µM [7]: 72%; inhibition at 100 µM [7]: 88%; competition with testosterone or NADPH (microsomal 5α-reductase): did not appear to compete with testosterone or NADPH; Km (microsomal 5α-reductase; 5 μM γ-LA, 2.0 without, read-out: apparent Km value for NADPH): 3.1 µM; Vmax (microsomal 5α-reductase; 5 μM γ-LA, 7.5 without): 2.8 pmol 5α-DHT formed/mg protein/15 min; Km (microsomal 5α-reductase; read-out: apparent Km value for testosterone, 5 μM γ-LA, 2.4 without): 4.5 µM
